Measurements taken from the supplement of paper PMC10307832.

compound: CC[C@@H]1C(=O)N(C)c2cnc(Nc3ccc(C(=O)NC4CCN(C)CC4)cc3OC)nc2N1C1CCCC1 [BI-2536] + O=C(CCCCCCC(=O)Nc1ccccc1)NO [Vorinostat] (partner 1 µM); experiment: relative viability (nuclei count vs DMSO), 5 days (fraction); higher = more cells survive; details: first compound 0.01 µM
Summary of the method: (§1)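 Nuclei were stained with Hoechst during a one-step fixation (final 0.05% Triton X-100, 1% formaldehyde, 1 ug/ml Hoechst) carried out 5 days after dosing, then counted on 4× images. The cells, lung cancer lines in 1536-well plates, had been dosed by pin tool the day after seeding with one drug alone or a fixed anchor-drug dose plus five library-drug doses (not always all listed) in √10 steps. Relative viability is the nuclei count in treated wells divided by that in vehicle wells, and each value is the median of duplicate plates.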

Row | Cell Line | relative viability
1 | PC-14 | 0.809
2 | EKVX | 0.875
3 | LC-2-ad | 0.63
4 | NCI-H1975 | 0.727
5 | RERF-LC-KJ | 0.731
6 | NCI-H650 | 0.418
7 | PC-3 [JPC-3] | 0.857

same assay, conditions: first compound 0.03162 µM

Row | Cell Line | relative viability
8 | PC-14 | 0.387
9 | EKVX | 0.729
10 | LC-2-ad | 0.274
11 | NCI-H1975 | 0.593
12 | RERF-LC-KJ | 0.531
13 | NCI-H650 | 0.479
14 | PC-3 [JPC-3] | 0.677

same assay, conditions: first compound 0.1 µM

Row | Cell Line | relative viability
15 | PC-14 | 0.0698
16 | EKVX | 0.676
17 | LC-2-ad | 0.181
18 | NCI-H1975 | 0.326
19 | RERF-LC-KJ | 0.348
20 | NCI-H650 | 0.145
21 | PC-3 [JPC-3] | 0.416

same assay, conditions: first compound 0.3162 µM

Row | Cell Line | relative viability
22 | PC-14 | 0.0322
23 | EKVX | 0.407
24 | LC-2-ad | 0.198
25 | NCI-H1975 | 0.181
26 | RERF-LC-KJ | 0.224
27 | NCI-H650 | 0.154
28 | PC-3 [JPC-3] | 0.306

same assay, conditions: first compound 1 µM

Row | Cell Line | relative viability
29 | PC-14 | 0.0218
30 | EKVX | 0.208
31 | LC-2-ad | 0.221
32 | NCI-H1975 | 0.158
33 | RERF-LC-KJ | 0.255
34 | NCI-H650 | 0.128
35 | PC-3 [JPC-3] | 0.291

compound: CC[C@@H]1C(=O)N(C)c2cnc(Nc3ccc(C(=O)NC4CCN(C)CC4)cc3OC)nc2N1C1CCCC1 [BI-2536] + Cc1nc(Nc2ncc(C(=O)Nc3c(C)cccc3Cl)s2)cc(N2CCN(CCO)CC2)n1 [Dasatinib] (partner 0.075 µM); experiment: as above; details: first compound 0.01 µM
Summary of the method: as §1

Row | Cell Line | relative viability
36 | PC-14 | 0.269
37 | EKVX | 0.742
38 | LC-2-ad | 0.563
39 | NCI-H1975 | 0.374
40 | RERF-LC-KJ | 0.746
41 | NCI-H650 | 0.44
42 | PC-3 [JPC-3] | 1.02

same assay, conditions: first compound 0.03162 µM

Row | Cell Line | relative viability
43 | EKVX | 0.653
44 | LC-2-ad | 0.333
45 | NCI-H1975 | 0.334
46 | RERF-LC-KJ | 0.574
47 | NCI-H650 | 0.511
48 | PC-3 [JPC-3] | 0.925

same assay, conditions: first compound 0.1 µM

Row | Cell Line | relative viability
49 | PC-14 | 0.0367
50 | EKVX | 0.586
51 | LC-2-ad | 0.135
52 | NCI-H1975 | 0.194
53 | RERF-LC-KJ | 0.234
54 | NCI-H650 | 0.3
55 | PC-3 [JPC-3] | 0.879

same assay, conditions: first compound 0.3162 µM

Row | Cell Line | relative viability
56 | PC-14 | 0.0318
57 | EKVX | 0.399
58 | LC-2-ad | 0.197
59 | NCI-H1975 | 0.0936
60 | RERF-LC-KJ | 0.189
61 | NCI-H650 | 0.158
62 | PC-3 [JPC-3] | 0.266

same assay, conditions: first compound 1 µM

Row | Cell Line | relative viability
63 | PC-14 | 0.0158
64 | EKVX | 0.174
65 | LC-2-ad | 0.147
66 | NCI-H1975 | 0.0979
67 | RERF-LC-KJ | 0.217
68 | NCI-H650 | 0.0998
69 | PC-3 [JPC-3] | 0.188

compound: CC1CC(=O)N(C2=CN=C(N=C2N1C3CCCC3)NC4=C(C=C(C=C4)C(=O)NC5CCN(CC5)C)OC)C [NPK76-II-72-1] + Nc1nc2[nH]cc(CCc3ccc(C(=O)N[C@@H](CCC(=O)O)C(=O)O)cc3)c2c(=O)[nH]1 [Pemetrexed] (partner 0.2 µM); experiment: as above; details: first compound 0.01 µM
Summary of the method: as §1

Row | Cell Line | relative viability
70 | PC-14 | 0.124
71 | EKVX | 0.358
72 | LC-2-ad | 0.24
73 | NCI-H1975 | 0.261
74 | RERF-LC-KJ | 0.469
75 | NCI-H650 | 1.01
76 | PC-3 [JPC-3] | 0.963

same assay, conditions: first compound 0.03162 µM

Row | Cell Line | relative viability
77 | PC-14 | 0.126
78 | EKVX | 0.447
79 | LC-2-ad | 0.281
80 | NCI-H1975 | 0.288
81 | RERF-LC-KJ | 0.505
82 | NCI-H650 | 0.972

same assay, conditions: first compound 0.1 µM

Row | Cell Line | relative viability
83 | PC-14 | 0.125
84 | EKVX | 0.435
85 | LC-2-ad | 0.269
86 | NCI-H1975 | 0.274
87 | RERF-LC-KJ | 0.46
88 | NCI-H650 | 0.879
89 | PC-3 [JPC-3] | 1.06

same assay, conditions: first compound 0.3162 µM

Row | Cell Line | relative viability
90 | PC-14 | 0.123
91 | LC-2-ad | 0.266
92 | NCI-H1975 | 0.297
93 | RERF-LC-KJ | 0.439
94 | NCI-H650 | 0.922
95 | PC-3 [JPC-3] | 1.18

same assay, conditions: first compound 1 µM

Row | Cell Line | relative viability
96 | PC-14 | 0.162
97 | EKVX | 0.387
98 | LC-2-ad | 0.272
99 | NCI-H1975 | 0.303
100 | RERF-LC-KJ | 0.506
101 | NCI-H650 | 0.994
102 | PC-3 [JPC-3] | 1.1

compound: CC[C@@H]1C(=O)N(C)c2cnc(Nc3ccc(C(=O)NC4CCN(C)CC4)cc3OC)nc2N1C1CCCC1 [BI-2536] + CC(C)C[C@H](NC(=O)[C@H](Cc1ccccc1)NC(=O)c1cnccn1)B(O)O [Bortezomib] (partner 0.002 µM); experiment: as above; details: first compound 0.01 µM
Summary of the method: as §1

Row | Cell Line | relative viability
103 | PC-14 | 0.851
104 | EKVX | 0.976
105 | LC-2-ad | 1.06
106 | NCI-H1975 | 0.318
107 | RERF-LC-KJ | 1.12
108 | NCI-H650 | 0.73
109 | PC-3 [JPC-3] | 0.799

same assay, conditions: first compound 0.03162 µM

Row | Cell Line | relative viability
110 | PC-14 | 0.835
111 | EKVX | 1.16
112 | LC-2-ad | 0.923
113 | NCI-H1975 | 0.248
114 | RERF-LC-KJ | 1.28
115 | NCI-H650 | 0.563
116 | PC-3 [JPC-3] | 0.93

same assay, conditions: first compound 0.1 µM

Row | Cell Line | relative viability
117 | PC-14 | 0.665
118 | EKVX | 1.03
119 | LC-2-ad | 0.112
120 | NCI-H1975 | 0.243
121 | RERF-LC-KJ | 0.939
122 | NCI-H650 | 0.233
123 | PC-3 [JPC-3] | 0.834

same assay, conditions: first compound 0.3162 µM

Row | Cell Line | relative viability
124 | PC-14 | 0.0691
125 | EKVX | 0.164
126 | LC-2-ad | 0.124
127 | NCI-H1975 | 0.144
128 | RERF-LC-KJ | 0.221
129 | NCI-H650 | 0.19
130 | PC-3 [JPC-3] | 0.5

same assay, conditions: first compound 1 µM

Row | Cell Line | relative viability
131 | PC-14 | 0.0558
132 | EKVX | 0.148
133 | LC-2-ad | 0.104
134 | NCI-H1975 | 0.117
135 | RERF-LC-KJ | 0.264
136 | NCI-H650 | 0.126
137 | PC-3 [JPC-3] | 0.233
